These results are taken from US7960552B2, “Farnesoid X receptor agonists” (GlaxoSmithKline LLC, priority 2006, dated 2011).

Entries after “also recorded” stand apart in the source; their conditions may differ.

The subject of assay [1] is high-fat diet induced insulin resistant, glucose intolerant, and obese mouse model. The following applies: mice on high-fat diet, cited from earlier work.
The subject of assay [2] is bile duct-ligated mouse model. The following applies: cited from earlier work.
In the next assay the test system is db/db mice. The following applies: oral 30 mg/kg, bid; cited from earlier work.
For assay [3], the system named is high-fat diet fed obese mice. Nature of the assay: Effects of FXR agonists on diet induced obese mice. The class given is in vivo, C57BL mice. The following applies: 10, 30 and 100 mg/kg twice a day orally; for serum NEFA / serum cholesterol / serum glucose / serum glycerol / serum insulin / serum triglyceride: end of study; for body fat mass: four weeks of treatment, QMR. Here is the method: Methods: Male 20 to 25 g C57BL mice (Charles River, Indianapolis, Ind.) were housed at 72° F. and 50% relative humidity with a 12 h light and dark cycle and fed with standard rodent chow (Purina 5001, Harlan Teklad, Indianapolis, Ind.) or a high-fat diet (TD93075, Harlan Teklad, Indianapolis, Ind.) for eight weeks. After three weeks, mice on high-fat diet were randomized to vehicle or treatment groups based on fasting glucose and body weight. Starting from the fifth week, mice were given either vehicle or the compound in Example 1 (10, 30 and 100 mg/kg) or the compound in Example 5 (10, 30, 100 mg/kg) twice a day orally. Mice on the standard rodent chow were also given vehicle as a control. Body composition was measured using the quantitative magnetic resonance (QMR) method before and at the end of compound treatment. […] Serum chemistry levels were measured using the Instrumentation Laboratory Ilab600™ clinical chemistry analyzer (Instrumentation Laboratory, Boston, Mass.).

In assay [4] the test system is hepatic stellate cells (HSC). The following applies: cultured HSCs; cited from earlier work.
Assay [5] has as its system rodent models of hepatic fibrosis. The following applies: multiple rodent models; cited from earlier work.
Setting [6] is: 100 mg/kg twice a day orally, 100 mg/kg.

As for `CC(C)c1onc(-c2c(Cl)cccc2Cl)c1COc1ccc(/C=C/c2cccc(C(=O)O)c2)c(Cl)c1` [GW4064], in assay [1] (setting [6]), the serum glucose entry is “decreased”, the serum insulin result is “decreased” and the serum triglyceride entry was “decreased”. The glucose tolerance entry in assay [1] (100 mg/kg twice a day orally, GTT, 100 mg/kg) is recorded as “corrected glucose intolerance; also recorded: improve”. For the same compound, in assay [1] (100 mg/kg twice a day orally), the “high-fat diet induced body weight gain” value was “reduced” and the liver triglyceride content entry is on record as “reduced”. For the same compound, in assay [1], the body fat mass result is given as “decrease”, the body weight entry is reported as “decrease” and the serum total cholesterol result is on record as “decrease”. In assay [2], the bacterial overgrowth entry was “decreased”, the mucosal barrier result is given as “improved” and the “translocation of bacteria to mesenteric lymph nodes” value is “decreased”. Further, in the assay with db/db mice, the NEFA entry is on record as “decreased”, the total cholesterol entry was “decreased” and the triglyceride entry is “decreased”.
In the case of `CC(C)c1onc(-c2c(Cl)cccc2Cl)c1COc1ccc(-c2ccc3nc(C(=O)O)ccc3c2)cc1` [Example 1, 6-[4-({[3-(2,6-Dichlorophenyl)-5-(1-methylethyl)-4-isoxazolyl]methyl}oxy)phenyl]-2-quinolinecarboxylic Acid], in assay [3], the “serum NEFA” value is recorded as “decreased”, the serum cholesterol entry is on record as “decreased”, the serum glucose entry is “decreased” and the serum glycerol result was “decreased”. Also, in assay [3], the serum insulin entry is “decreased”, the serum triglyceride result is listed as “decreased” and the body fat mass result is recorded as “decreased”.
`CC(C)c1onc(-c2c(Cl)cccc2Cl)c1COc1ccc(-c2ccc3cc(C(=O)O)ncc3c2)cc1` [Example 5, 7-[4-({[3-(2,6-Dichlorophenyl)-5-(1-methylethyl) -4-isoxazolyl]methyl}oxy)phenyl]-3-isoquinolinecarboxylic acid]: in assay [3], the “serum NEFA” value is “decreased”, the serum cholesterol entry is given as “decreased”, the serum glucose result is “decreased” and the serum glycerol entry was “decreased”. In assay [3], the serum insulin result was “decreased”, the serum triglyceride entry is listed as “decreased” and the body fat mass result is on record as “decreased”.
As for `CC[C@H]1[C@@H](O)[C@@H]2[C@H](CC[C@]3(C)[C@@H]([C@H](C)CCC(=O)O)CC[C@@H]23)[C@@]2(C)CC[C@@H](O)C[C@@H]12` [Example 6EtCDCA, 6-ethyl-chenodeoxycholic acid], in assay [4], the “expression of fibrotic marker α1(I)collagen” value is reported as “decreased” and the “expression of fibrotic marker α-smooth muscle actin” value is listed as “decreased”. In addition, in assay [5], the “development of hepatic fibrosis” value was “prevent” and the “resolution of hepatic fibrosis” value is “promote”.
